# Measured values published in patent publication US20140094505A1, “BIOMARKERS FOR ASSESSING TREATMENT OF SIALIC ACID DEFICIENCY DISEASES AND CONDITIONS” (Ultragenyx Pharmaceutical Inc., priority 2012, published 2014).
# System: serum biomarkers (SAT biomarkers)
# Test: Phase 2: change (delta) in serum biomarker levels between week 0 and week 24 per dosage group (placebo, 3 g/day, 6 g/day), Human Discovery MAP250+ v2.0
# Format: in vivo
# Design: key to overall trend, Epithelial-Derived Neutrophil-Activating Protein 78 (ENA-78) / overall trend, Lactoylglutathione lyase (LGL) / overall trend, Latency-Associated Peptide of Transforming Growth Factor beta 1 (LAP TGF-b1) / overall trend, Macrophage Colony-Stimulating Factor 1 (M-CSF) / overall trend, Matrix Metalloproteinase-9, total (MMP-9, total) / overall trend, Myoglobin / overall trend, Neuronal Cell Adhesion Molecule (Nr-CAM) / overall trend, Plasminogen Activator Inhibitor 1 (PAI-1) / overall trend, Receptor tyrosine-protein kinase erbB-3 (ErbB3) / overall trend, Vascular Endothelial Growth Factor C (VEGF-C) / overall trend, Chromogranin-A (CgA): normalization: level moved toward normal level and the change in 6 g/day group was larger compared to placebo; stabilization: level might still move away from normal level but at a slower rate in 6 g/day group compared to placebo
# Settings: HIBM patients
# Method: Forty-seven (47) HIBM patient serum samples collected at week 24 from phase 2 study were tested using the Human Discovery MAP250+ v2.0 quantitative immunoassay system developed by Myriad RBM. The results were compared to the serum samples of the same 47 HIBM patients collected at week 0 (baseline) which were conducted earlier with the same immunoassay system.
# Patients were unblinded and the results were organized into the 3 assigned dosage groups, placebo (n=14), 3 g/day (n=17) and 6 g/day (n=14). The major focus of the analysis was 1) to assess changes (delta, Δ) in levels of analytes between baseline and week 24 in each dosage group, 2) whether the changes correlate to dosage levels.
# Analytes were excluded from analysis if […] of the HIBM patient samples were below least detectable dose (LDD). Within each dosage group, individual values with >5× difference to the mean of the dosage group were considered as outliers and thus removed from analysis.
# Upon treatment, levels of these analytes show an overall trend of either stabilization or normalization. […] For example, LAP TGF-b1 is an example of biomarker showing trend of normalization when the baseline level in HIBM patients is higher than normal controls, see FIG. 2. NCAM is another example of biomarker showing trend of normalization when the baseline level in HIBM patients is lower than normal controls, see FIG. 3.
structure (smiles),measurement,setting,value
"CC(=O)N[C@H]1[C@H]([C@H](O)[C@H](O)CO)OC(O)(C(=O)O)C[C@@H]1O (stereo partly drawn) [Sialic Acid, 5-N-acetylneuraminic acid]","average Δweek 0-24 (3 g/day), Chromogranin-A (CgA)","3 g/day, week 0 to week 24",64.00 ng/mL
same,"average Δweek 0-24 (3 g/day), Epithelial-Derived Neutrophil-Activating Protein 78 (ENA-78)","3 g/day, week 0 to week 24",-0.26 ng/mL
same,"average Δweek 0-24 (3 g/day), Lactoylglutathione lyase (LGL)","3 g/day, week 0 to week 24",0.25 ng/mL
same,"average Δweek 0-24 (3 g/day), Latency-Associated Peptide of Transforming Growth Factor beta 1 (LAP TGF-b1)","3 g/day, week 0 to week 24",-0.44 ng/mL
same,"average Δweek 0-24 (3 g/day), Macrophage Colony-Stimulating Factor 1 (M-CSF)","3 g/day, week 0 to week 24",0.10 ng/mL
same,"average Δweek 0-24 (3 g/day), Matrix Metalloproteinase-9, total (MMP-9, total)","3 g/day, week 0 to week 24",449.18 ng/mL
same,"average Δweek 0-24 (3 g/day), Myoglobin","3 g/day, week 0 to week 24",-48.88 ng/mL
same,"average Δweek 0-24 (3 g/day), Neuronal Cell Adhesion Molecule (Nr-CAM)","3 g/day, week 0 to week 24",-0.07 ng/mL
same,"average Δweek 0-24 (3 g/day), Plasminogen Activator Inhibitor 1 (PAI-1)","3 g/day, week 0 to week 24",0.82 ng/mL
same,"average Δweek 0-24 (3 g/day), Receptor tyrosine-protein kinase erbB-3 (ErbB3)","3 g/day, week 0 to week 24",-0.28 ng/mL
same,"average Δweek 0-24 (3 g/day), Vascular Endothelial Growth Factor C (VEGF-C)","3 g/day, week 0 to week 24",1.35 ng/mL
same,"overall trend, Chromogranin-A (CgA)","6 g/day vs placebo, week 24",stabilization
same,"overall trend, Epithelial-Derived Neutrophil-Activating Protein 78 (ENA-78)","6 g/day vs placebo, week 24",normalization
same,"overall trend, Lactoylglutathione lyase (LGL)","6 g/day vs placebo, week 24",normalization
same,"overall trend, Latency-Associated Peptide of Transforming Growth Factor beta 1 (LAP TGF-b1)","6 g/day vs placebo, week 24",normalization
same,"overall trend, Macrophage Colony-Stimulating Factor 1 (M-CSF)","6 g/day vs placebo, week 24",stabilization
same,"overall trend, Matrix Metalloproteinase-9, total (MMP-9, total)","6 g/day vs placebo, week 24",stabilization
same,"overall trend, Myoglobin","6 g/day vs placebo, week 24",normalization
same,"overall trend, Neuronal Cell Adhesion Molecule (Nr-CAM)","6 g/day vs placebo, week 24",normalization
same,"overall trend, Plasminogen Activator Inhibitor 1 (PAI-1)","6 g/day vs placebo, week 24",normalization
same,"overall trend, Receptor tyrosine-protein kinase erbB-3 (ErbB3)","6 g/day vs placebo, week 24",stabilization
same,"overall trend, Vascular Endothelial Growth Factor C (VEGF-C)","6 g/day vs placebo, week 24",stabilization
same,"average Δweek 0-24 (6 g/day), Chromogranin-A (CgA)","6 g/day, week 0 to week 24",5.83 ng/mL
same,"average Δweek 0-24 (6 g/day), Epithelial-Derived Neutrophil-Activating Protein 78 (ENA-78)","6 g/day, week 0 to week 24",-0.42 ng/mL
same,"average Δweek 0-24 (6 g/day), Lactoylglutathione lyase (LGL)","6 g/day, week 0 to week 24",-8.27 ng/mL
same,"average Δweek 0-24 (6 g/day), Latency-Associated Peptide of Transforming Growth Factor beta 1 (LAP TGF-b1)","6 g/day, week 0 to week 24",-1.00 ng/mL
same,"average Δweek 0-24 (6 g/day), Macrophage Colony-Stimulating Factor 1 (M-CSF)","6 g/day, week 0 to week 24",0.02 ng/mL
same,"average Δweek 0-24 (6 g/day), Matrix Metalloproteinase-9, total (MMP-9, total)","6 g/day, week 0 to week 24",444.64 ng/mL
same,"average Δweek 0-24 (6 g/day), Myoglobin","6 g/day, week 0 to week 24",-38.00 ng/mL
same,"average Δweek 0-24 (6 g/day), Neuronal Cell Adhesion Molecule (Nr-CAM)","6 g/day, week 0 to week 24",0.02 ng/mL
same,"average Δweek 0-24 (6 g/day), Plasminogen Activator Inhibitor 1 (PAI-1)","6 g/day, week 0 to week 24",-0.36 ng/mL
same,"average Δweek 0-24 (6 g/day), Receptor tyrosine-protein kinase erbB-3 (ErbB3)","6 g/day, week 0 to week 24",-0.16 ng/mL
same,"average Δweek 0-24 (6 g/day), Vascular Endothelial Growth Factor C (VEGF-C)","6 g/day, week 0 to week 24",6.43 ng/mL
